Converted amounts (≈) assume the structure as drawn. Like-named read-outs stand apart in the source and are kept apart here.
What was measured:
[1] = system: Balanus amphitrite larvae; settings: cited from earlier work; for EC50, larval settlement of Balanus amphitrite / toxicity effects on the barnacle larvae: in vivo
[2] = system: Artemia salina nauplii; test: Brine shrimp (Artemia salina) lethality test, ecotoxicity; assay type: in vivo; settings: 48 h; for mortality of Artemia salina nauplii: at 50 µM; for toxicity to A. salina: lowest concentration tested, 25 μM
Experimental: Ecotoxicity of the most promising xanthones to non-target species was assessed using the brine shrimp (Artemia salina) lethality test standard protocol. Newly hatched nauplii I larvae were used for the exposure to the most promising antifouling compounds at 50 and 25 µM. The bioassay was performed in 96-well microplates with eight replicates per condition and 15–20 nauplii per well, including a positive (K2Cr2O7 at 13.6 µM) and negative control (0.1% DMSO). The percentage of nauplii mortality for each condition was determined at the end of the exposure period (48 h).

[3] = system: Mytilus galloprovincialis plantigrade larvae; test: Mytilus galloprovincialis larvae anti-settlement bioassay; assay type: in vivo; settings: for settlement of mussel larvae: at 50 µM; for anti-settlement response versus negative control: screening at 50 μM, Dunnett test p < 0.05
Experimental: (§1) For the bioassays, M. galloprovincialis juveniles were collected in intertidal mussel beds during low tides in Memória beach, Matosinhos, Portugal (41°13′59″ N; 8°43′28″ W). Mussel plantigrade larvae (0.5–2 mm) were sorted in a binocular magnifier (Olympus SZX2-ILLT, Tokyo, Japan) and those presenting foot exploring behavior for settlement were selected to the screening bioassays at 50 µM performed in 24-well microplates for 15 h, in the dark at 18 ± 1 °C, according to Almeida et al.. Four well replicates per condition and five competent larvae per well were included. Negative and positive controls were included, namely DMSO (0.1%) and CuSO4 (5 µM) as an efficient antifouling agent. Stock solutions in DMSO (50 mM) were used to prepare test media (50 µM) in filtered seawater (0.1% DMSO). After the exposure period, the anti-settlement bioactivity was determined by the observation of efficiently attached plantigrade larvae considering the existence/absence of produced byssal threads for each test condition.
(§2) Data from the anti-settlement screening were analyzed using a one-way analysis of variance (ANOVA), followed by a Dunnett test against the negative control (p < 0.05). […] Therapeutic ratios (LC50/EC50) were used to evaluate the effectiveness versus toxicity of bioactive compounds. […] The mixed model ANOVA was performed on log10(x + 1)-transformed values from 4 biological replicates, employing the software IBM SPSS Statistics (version 21, SPSS Inc., Chicago, IL, USA).

[4] = Toxicity (LC50, therapeutic ratio) toward mussel plantigrade larvae; assay type: in vivo; settings: Mytilus galloprovincialis, in vivo, median lethal dose, mussel plantigrades
Experimental: as §1, §2

[5] = system: Mytilus galloprovincialis plantigrade larvae; test: as above; assay type: in vivo
Experimental: as §1, §2

[6] = system: Mytilus galloprovincialis plantigrade larvae; settings: cited from earlier work
[7] = system: Mytilus galloprovincialis plantigrade larvae; settings: cited from earlier work; remark: listed apart in the source
[8] = system: Artemia salina nauplii; settings: cited from earlier work
[9] = system: Roseobacter litoralis CECT 5395; test: Biofilm-forming marine bacteria growth bioassay; assay type: cell-based; settings: for inhibition at 12.5 µM: Roseobacter litoralis, read-out: growth inhibition of R. litoralis
Experimental: The experimental procedure was performed as previously reported by Almeida et al.. […] Bacterial growth inhibition in the presence of the compounds was determined in quadruplicate at 600 nm using a microplate reader (Biotek Synergy HT, Winooski, VT, USA). Negative and positive controls used were a solution of marine broth with 0.1% DMSO, and a stabilized solution of marine broth with penicillin-streptomycin-neomycin, respectively.

[10] = system: Escherichia coli; design: method as in PMID 23172582; settings: in words; cited from earlier work
[11] = system: brine shrimp (Artemia salina); design: method as in PMID 23172582; settings: in words; cited from earlier work
[12] = Mytilus galloprovincialis, 15 h, concentration that inhibited 50% of larval settlement of mussel plantigrades, 15 h exposure, read-out: EC50
[13] = Mytilus galloprovincialis, 15 h, concentration that inhibited 50% of larval settlement of mussel plantigrades, 15 h exposure, read-out: EC50 (μg.mL^−1)
[14] = other: larvae immersed in test media in filtered seawater
[15] = Mytilus galloprovincialis, 15 h
[16] = Mytilus galloprovincialis, 15 h, read-out: EC50 (μg.mL^−1)
[17] = larval settlement of mussel plantigrades

Row | SMILES | mortality of Artemia salina nauplii [2] | EC50 [3, 12] | EC50 [3, 13] | settlement of mussel larvae ([3]; 15 h) | anti-settlement response versus negative control [3] | LC50 at 15 h [4, 14] | toxicity to the macrofouling species (mussel larvae) ([5]; in vivo) | other results
1 | COC(=O)c1cc(O)cc2oc3c(Cl)c(C)c(Cl)c(O)c3c(=O)c12 [penicilixanthone] |  |  |  |  |  |  |  | EC50, larval settlement of B. amphitrite [1]: 17.1 µg/mL
2 | COc1cc(CN2CCc3c(N)cccc3C2)c2c(=O)c3ccccc3oc2c1OC [Compound 21, 1-((5-amino-3,4-dihydroisoquinolin-2(1H)-yl)methyl)-3,4-dimethoxy-9H-xanthen-9-one] | < 10% | 7.28 µM | 3.03 µg/mL | 20% | highly significant anti-settlement responses | > 100 µM | low toxicity | 
3 | COc1cc(C)c2c(=O)c3ccccc3oc2c1OC [Compound 1, 3,4-dimethoxy-1-methyl-9H-xanthen-9-one] |  |  |  |  | highly significant anti-settlement responses |  |  | toxicity to A. salina [2]: significant toxicity; EC50 [3, 15]: 11.8 µM; EC50 [3, 16]: 3.19 µg/mL; LC50 at 15 h [4]: > 100 µM; toxicity to the macrofouling species (mussel larvae) ([5]; in words): low toxicity
4 | COc1ccc2c(=O)c3c(CCl)cc(OC)c(OC)c3oc2c1 [Compound 4, 1-(chloromethyl)-3,4,6-trimethoxy-9H-xanthen-9-one] | < 10% | 16.1 µM | 5.41 µg/mL | 20% | highly significant anti-settlement responses | > 100 µM | low toxicity | 
5 | COc1ccc2c(=O)c3c(CBr)cc(OC)c(OC)c3oc2c1 [Compound 5, 1-(bromomethyl)-3,4,6-trimethoxy-9H-xanthen-9-one] |  |  |  | 45% |  |  |  | 
6 | N#Cc1c(-c2ccc(Cl)cc2)[nH]c(C(F)(F)F)c1Br [ECONEA] |  |  |  |  |  |  |  | EC50 [6, 17]: 4.01 µM; EC50 (μg.mL^−1) [6, 17]: 1.40 µg/mL (≈ 4.01 µM); LC50 ([7]; median lethal dose, mussel plantigrades): 108 µM; mortality of Artemia salina ([8]; at the same concentration range (25-50 µM)): 100%
7 | COc1cc2c(c3oc4cccc(O)c4c(=O)c13)[C@@H]1C=CO[C@@H]1O2 [sterigmatocystin] |  |  |  |  |  |  |  | EC50, larval settlement of Balanus amphitrite [1]: < 0.125 µg/mL; toxicity effects on the barnacle larvae [1]: induced paralyzing effects
8 | COc1cc(C(Br)Br)c2c(=O)c3ccccc3oc2c1OC [Compound 6, 1-(dibromomethyl)-3,4-dimethoxy-9H-xanthen-9-one] | < 10% |  |  |  | highly significant anti-settlement responses |  |  | EC50 [3, 15]: 22.8 µM; EC50 [3, 16]: 9.75 µg/mL; LC50 at 15 h [4]: > 100 µM; toxicity to the macrofouling species (mussel larvae) ([5]; in words): low toxicity; inhibition at 12.5 µM ([9]; CECT5395, 24 h): > 30%
9 | COC(=O)c1cc(OC)c2c(=O)c3c(O)cc(C)cc3oc2c1 [yicathin B] |  |  |  |  |  |  |  | antimicrobial activity against Escherichia coli [10]: active; brine shrimp (Artemia salina) toxicity [11]: weak
10 | COc1ccc2c(=O)c3c(C)cc(OC)c(OC)c3oc2c1 [Compound 2, 3,4,6-trimethoxy-1-methyl-9H-xanthen-9-one] |  |  |  |  | highly significant anti-settlement responses |  |  | toxicity to A. salina [2]: significant toxicity; EC50 [3, 15]: 27.2 µM; EC50 [3, 16]: 8.15 µg/mL; LC50 at 15 h [4]: > 100 µM; toxicity to the macrofouling species (mussel larvae) ([5]; in words): low toxicity
11 | COc1ccc2c(=O)c3c(C)c(Cl)c(OC)c(OC)c3oc2c1 [Compound 3, 2-chloro-3,4,6-trimethoxy-1-methyl-9H-xanthen-9-one] |  |  |  |  | nullified the significant anti-settlement effect |  |  | 
12 | COc1cc2c(c3c(=O)c4c(OC)ccc(O)c4oc13)[C@@H]1C=CO[C@@H]1O2 [methoxysterigmatocystin] |  |  |  |  |  |  |  | EC50, larval settlement of Balanus amphitrite [1]: < 0.125 µg/mL; toxicity effects on the barnacle larvae [1]: induced paralyzing effects
13 | O=c1c2ccccc2oc2c(O)c(O)ccc12 [3,4-Dihydroxyxanthone] |  |  |  |  |  |  |  | activity toward the settlement of Mytilus galloprovincialis larvae ([6]; in words): exhibited in vivo activity; toxicity to the macrofouling species (mussel larvae) ([7]; in words): low toxicity; ecotoxicity toward A. salina, mortality [8]: < 10%
14 | COc1cc(CO)c2c(=O)c3ccccc3oc2c1OC [Compound 8, 1-(hydroxymethyl)-3,4-dimethoxy-9H-xanthen-9-one] | < 10% | 21.8 µM | 6.25 µg/mL | 35% | highly significant anti-settlement responses | > 100 µM | low toxicity | 
15 | COc1cc(CN2CCN(CCO)CC2)c2c(=O)c3ccccc3oc2c1OC [Compound 19, 1-((4-(2-hydroxyethyl)piperazin-1-yl)methyl)-3,4-dimethoxy-9H-xanthen-9-one] | < 10% | 53.9 µM | 21.5 µg/mL | 10% | highly significant anti-settlement responses | > 100 µM | low toxicity | 
16 | COc1cc(CNCCN2CCOCC2)c2c(=O)c3ccccc3oc2c1OC [Compound 16, 3,4-dimethoxy-1-(((2-morpholinoethyl)amino)methyl)-9H-xanthen-9-one] | < 10% | 17.5 µM | 6.98 µg/mL | 0% | highly significant anti-settlement responses | > 100 µM | low toxicity | antibacterial bioactivity in concentration–response study ([9]; R. litoralis, concentrations between 2 and 32 µM (Figure S1)): not confirmed; inhibition at 12.5 µM ([9]; CECT5395, screening at 12.5 µM, 24 h): > 30%
17 | COc1cc(CN2CCCCC2)c2c(=O)c3ccccc3oc2c1OC [Compound 23, 3,4-dimethoxy-1-(piperidin-1-ylmethyl)-9H-xanthen-9-one] | < 10% | ~4 µM | 1.26 µg/mL | 20% | highly significant anti-settlement responses | > 100 µM | low toxicity | EC50 ([3]; concentration that inhibited 50% of larval settlement of mussel plantigrades, 15 h exposure, read-out: EC50): 3.57 µM
